Columns and labels:
MT2R = target: T1, MT2R (Homo sapiens, UniProt P49286); assay: Melatonin receptor affinity, MT2R; assay type: binding
T1 sequence (P49286 1-362): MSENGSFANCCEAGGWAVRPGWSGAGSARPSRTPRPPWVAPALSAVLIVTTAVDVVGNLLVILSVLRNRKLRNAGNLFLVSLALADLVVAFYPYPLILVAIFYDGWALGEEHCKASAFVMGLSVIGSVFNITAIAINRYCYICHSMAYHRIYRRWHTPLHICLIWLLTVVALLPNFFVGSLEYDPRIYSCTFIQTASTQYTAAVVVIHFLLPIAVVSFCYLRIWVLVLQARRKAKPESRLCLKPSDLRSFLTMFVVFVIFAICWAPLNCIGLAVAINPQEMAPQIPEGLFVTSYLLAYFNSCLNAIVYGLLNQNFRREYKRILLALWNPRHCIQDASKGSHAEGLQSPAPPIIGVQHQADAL
Description: Tasimelteon is a white to off-white powder with a melting point of about 78° C. […] Tasimelteon has 2-4 times greater affinity for MT2R relative to MT1R.

[1] = Tasimelteon exposure with Rifampin (CYP3A4 inducer); assay type: in vivo, human; conditions: single 20 mg dose after 11 days of 600 mg Rifampin
Description: For example, when a single 20 mg dose of tasimelteon was administered after 11 days of the administration of 600 mg of Rifampin, tasimelteon mean exposure was reduced by approximately 89%. Therefore, in cases where an individual is co-administered a CYP3A4 inducer, the dose of tasimelteon administered may be greater than if administered alone or in the absence of a CYP3A4 inducer.

CYP1A2 and CYP3A4 = assay: Isoenzymes involved in tasimelteon metabolism; assay type: in vitro ADME
[2] = Effect of smoking on pharmacokinetics of tasimelteon and metabolites; assay type: in vivo, human
Description: Smokers were defined as those smoking 10 or more cigarettes per day. Non-smokers were defined as those smoking no cigarettes per day.

Non-24 patients = assay: Phase advance of circadian rhythm on initiation of treatment; assay type: in vivo, human; conditions: upon initiation of treatment
Description: For example, treatment of a patient who has a target bedtime of 10:00 p.m. and a target wake time of 7:00 a.m., treatment initiation can be on a day when urinary aMT6s acrophase is predicted to occur at 3:30 am. However, treatment with tasimelteon can conveniently be initiated on a day on which melatonin acrophase, e.g., using calculated urinary aMT6s acrophase, is predicted to be between about 5.5 hours before target wake time and 2.5 hours after target wake time. Without intending to be bound to a particular theory, this flexibility is apparently owing to the unusually marked effects of such active ingredient on circadian rhythm upon initiation of treatment (e.g., phase advance by as much as about 5 hours on initial treatment).

patients with Non-24 = assay: SET Study, Phase III randomized, double-masked, placebo-controlled; assay type: in vivo, human
Description: Specifically, patients were orally administered 20 mg tasimelteon per day for at least 12 weeks prior to re-estimating tau. Patients were selected for randomization or open label based on baseline tau estimates. Drug was administered at about 1 hour prior to target sleep time, as determined by patients based on a 9 hour nighttime sleep period.
The SET study was an 84 patient randomized, double-masked, placebo-controlled study in patients with Non-24. The primary endpoints for this study were Entrainment of the melatonin (aMT6s) rhythm to the 24-hour clock and Clinical Response as measured by Entrainment plus a score of greater than or equal to 3 on the following N24CRS:
The SET study also assessed a number of secondary endpoints including Entrainment of cortisol rhythm and a broad range of clinical sleep and wake parameters. These parameters included improvement in the total nighttime sleep in the worst 25% of nights (LQ-nTST), decrease in the total daytime sleep duration in the worst 25% of days (UQ-dTSD) and midpoint of sleep timing (MoST) which is derived from a combination of the sleep reported for both nighttime and daytime. CGI-C is a seven-point rating scale of global functioning with lower scores indicating larger improvements.

[3] = Tasimelteon exposure with ketoconazole (CYP3A4 inhibitor); assay type: in vivo, human; conditions: single 20 mg dose on fifth day of ketoconazole 400 mg per day vs tasimelteon alone
Description: Therefore, in cases where an individual is co-administered a CYP3A4 inhibitor, the dose of tasimelteon administered may be less than if administered alone or in the absence of a CYP3A4 inhibitor.
For example, a pharmaceutical composition providing a dosage equivalent to a daily dosage between about 5 mg and about 15 mg of tasimelteon may be co-administered with a […] inhibitor.

[4] = Pharmacokinetics on co-administration of tasimelteon and fluvoxamine; assay type: in vivo, human
Description: Twenty-four healthy male or female subjects between the ages of 18 and 55 years of age (inclusive) who were non-smokers with a body mass index (BMI) of ≥18 and ≤35 kg/m2 participated in this open-label, single-sequence study conducted at one site. On day 1, subjects were administered […] of tasimelteon.

[5] = 20 mg/day, SET secondary endpoint
[6] = 20 mg/day, sensitivity analysis
[7] = co-administration of fluvoxamine vs tasimelteon alone

## CCC(=O)NC[C@@H]1C[C@H]1c1cccc2c1CCO2 (relative stereo) [Tasimelteon, trans-N-[[2-(2,3-dihydrobenzofuran-4-yl)cycloprop-1yl]methyl]propanamide]
MT2R
  greater affinity for MT2R relative to MT1R: 2-4 times
[1]
  reduction of tasimelteon mean exposure: approximately 89%
CYP1A2 and CYP3A4
  isoenzymes also involved in metabolism: CYP1A1, CYP2D6, CYP2C19, and CYP2C9
  major isoenzymes involved in the metabolism: CYP1A2 and CYP3A4
[2]; Non-Smokers
  CL/F: 1,482 ± 1,008 mL/min
[2]; Smokers
  CL/F: 2,290 ± 1,232 mL/min
[2]; Smokers vs Non-Smokers
  AUC (inf), Geometric Mean Ratio: 60.14%
  CL/F, Geometric Mean Ratio: 166.27%
  Cmax, Geometric Mean Ratio: 63.98%
  Vz/F, Geometric Mean Ratio: 144.39%
  t½, Geometric Mean Ratio: 86.84%
Non-24 patients
  phase advance on initial treatment: ≤ 5 h
Patients with Non-24; 20 mg/day oral, SET primary endpoint
  Entrainment (aMT6s): 20.0%
Patients with Non-24; 20 mg/day, SET
  LQ-nTST (LS mean minutes): 57.0 min
  MoST (LS mean minutes): 34.8 min
Patients with Non-24; 20 mg/day, SET primary endpoint
  Clinical Response (Entrainment + N24CRS >=3): 23.7%
Patients with Non-24; [5]
  Entrainment (cortisol): 17.5%
  N24CRS (LS mean minutes): 1.77 min
Patients with Non-24; 20 mg/day, SET, smaller numbers indicate improvement
  UQ-dTSD (LS mean minutes): -46.2 min
Patients with Non-24; [6]
  Clinical Response (Entrainment + N24CRS >=2): 28.9%
  N24CRS >=2: 57.9%
  N24CRS >=3: 28.9%
Patients with Non-24; 20 mg/day, smaller numbers indicate improvement
  CGI-C (LS mean minutes): 2.6 min
Patients with Non-24; SET study
  safety and tolerability: safe and well tolerated
Patients with Non-24; on drug at least two circadian cycles, not on beta blockers, tau<24.7 hours
  percentage of entrained patients: approximately 85%
Patients with Non-24; only subjects with significant sleep and nap problems at baseline
  LQ-nTST and UQ-dTSD >=90 min: 23.8%
Patients with Non-24; sensitivity analysis
  LQ-nTST and UQ-dTSD >=45 min: 31.6%
[3]
  increase of tasimelteon exposure: approximately 54%
[4]; Day 1, 5.667 mg tasimelteon alone
  CL/F: 107 ± 555 mL/min
[4]; Day 8, 5.667 mg tasimelteon + 50 mg fluvoxamine
  CL/F: 189 ± 155 mL/min
[4]; Day 8 vs Day 1
  AUC (inf), Geometric Mean Ratio: 653.36%
  CL/F, Geometric Mean Ratio: 15.31%
  Cmax, Geometric Mean Ratio: 232.74%
  t½, Geometric Mean Ratio: 211.82%
[4]; [7]
  increase of AUC0-inf: approximately 7 fold
  increase of Cmax: approximately 2 fold
